This is an account of results in patent publication US20260273072A1, “NOVEL PLK1 DEGRADATION INDUCING COMPOUND” (UPPTHERA, INC., priority 2023, published 2026).

Holding throughout (type): cell-based
One assay has as its system MRC-5 cell line. The experiment in a line: Cell viability assay for MRC-5 cell line (EZ-Cytox). The note with it: Homo sapiens, MRC5, 120 h; MRC-5 normal cell line, 5 days, 10000 nM to 1.52 nM; read-out: Activity: IC50 value, cell viability, MRC-5 cell line (Exemplary Compounds). The procedure:
4. Cell Viability Assay for MRC-5 Cell Line
(1) Culture of MRC-5 Cell Line
The MRC-5 cell line was purchased from KCLB. Passage of cultured cells was maintained within P15.
(2) Treatment of Compounds of the Present Invention
Then, it was cultured in 37° C. CO2 incubator (Thermo Fisher Scientific) for 5 days.
(3) Cytotoxicity Experiment
CO2 incubator for 4 hours.

In a further assay the target is T1, PLK1 (Homo sapiens, UniProt P53350).
T1 construct: endogenous in cells; host or cells: HeLa LgBit (Plk1-HiBit KI): HeLa stably expressing LgBit, with a CRISPR/Cas9 knock-in of HiBit at the endogenous PLK1 locus
T1 sequence (P53350 whole entry): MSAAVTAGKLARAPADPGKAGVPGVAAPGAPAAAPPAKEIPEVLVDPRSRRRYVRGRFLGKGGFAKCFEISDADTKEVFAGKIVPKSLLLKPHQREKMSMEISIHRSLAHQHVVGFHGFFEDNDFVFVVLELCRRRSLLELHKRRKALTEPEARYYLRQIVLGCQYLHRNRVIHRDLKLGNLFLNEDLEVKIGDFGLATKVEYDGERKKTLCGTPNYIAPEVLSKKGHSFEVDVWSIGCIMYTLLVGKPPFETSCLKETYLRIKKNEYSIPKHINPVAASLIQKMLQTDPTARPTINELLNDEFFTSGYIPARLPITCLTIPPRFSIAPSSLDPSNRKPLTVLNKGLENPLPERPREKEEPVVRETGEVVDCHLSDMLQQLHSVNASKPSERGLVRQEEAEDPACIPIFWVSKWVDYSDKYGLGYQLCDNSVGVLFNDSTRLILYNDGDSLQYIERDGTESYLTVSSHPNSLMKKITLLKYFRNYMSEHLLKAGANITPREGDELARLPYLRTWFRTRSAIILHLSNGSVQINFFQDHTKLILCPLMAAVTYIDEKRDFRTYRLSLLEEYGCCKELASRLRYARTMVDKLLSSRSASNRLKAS
In words: Luciferase assay for PLK1 in HeLa LgBit (Plk1-HiBit KI) cell line. The settings on record: 300 nM compound, luminescence after 9 hours. The essentials:
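Compounds (300 nM) were added with Endurazine to thymidine-synchronised cells (2 mM, 24 h block, then release and 18 h culture), and luminescence at 470-480 nm was followed live. Cells: HeLa stably expressing LgBit, HiBit knocked into native PLK1 C-terminus. Value: luminescence ratio versus DMSO control.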

The test system of the next assay is NCI-H526 cell line. In words: Cell viability assay for NCI-H526 cell line (EZ-Cytox). The settings on record: Homo sapiens, NCI-H526, 120 h; H526 cells, 5 days, 3000 nM to 0.46 nM. The gist of the method: (§1)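 IC50 values are binned (A: <30 nM, B: <50 nM, C: <100 nM, D: <200 nM, E: <400 nM) from EZ-Cytox read-outs. Cells were exposed to compound for 5 days, then shaken 3 min and absorbance taken at […].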

The next assay relates to NCI-H69 cell line. The experiment in a line: Cell viability assay for NCI-H69 cell line (EZ-Cytox). The note with it: Homo sapiens, NCI-H69, 120 h; H69 cells, 5 days, 3000 nM to 0.46 nM. The essentials:
as §1

`COc1cc(C(=O)NC2CC3(CCN(CC4CCN(c5ccc(NC6CCC(=O)NC6=O)c(F)c5)CC4)CC3)C2)ccc1Nc1ncc2c(n1)N(C1CCCC1)CC(F)(F)C(=O)N2C` (stereo not drawn) [Compound 36, 4-((9-cyclopentyl-7,7-difluoro-5-methyl-6-oxo-6,7,8,9-tetrahydro-5H-pyrimido[4,5-b][1,4]diazepin-2-yl)amino)-N-(7-((1-(4-((2,6-dioxopiperidin-3-yl)amino)-3-fluorophenyl)piperidin-4-yl)methyl)-7-azaspiro[3.5]nonan-2-yl)-3-methoxybenzamide]: the IC50 in the assay on MRC-5 cell line was more than 10000 nM; in the assay on NCI-H526 cell line, less than 30 nM; with NCI-H69 cell line, less than 50 nM. The “Activity: ratio of the luminescence value of compound treatment group to DMSO treatment group” value (“Activity: ratio” below) on PLK1 is on record as “+++ (+++: <0.3)”.
The matching figures for `COc1cc(C(=O)NC2CCN(CCC3CCN(c4ccc(NC5CCC(=O)NC5=O)c(F)c4)CC3)CC2)c(F)cc1Nc1ncc2c(n1)N(C(C)C)CC(F)(F)C(=O)N2C` (stereo not drawn) [Compound 37, 4-((7,7-difluoro-9-isopropyl-5-methyl-6-oxo-6,7,8,9-tetrahydro-5H-pyrimido[4,5-b][1,4]diazepin-2-yl)amino)-N-(1-(2-(1-(4-((2,6-dioxopiperidin-3-yl)amino)-3-fluorophenyl)piperidin-4-yl)ethyl)piperidin-4-yl)-2-fluoro-5-methoxybenzamide]: more than 10000 nM, less than 50 nM, less than 100 nM and “++ (++: <0.5)”.
On the same counts, the results for `COc1cc(C(=O)NN2CCC(CCN3CCN(c4ccc(N(C)C5CCC(=O)NC5=O)cc4F)CC3)CC2)ccc1Nc1ncc2c(n1)N(C(C)C)CC(F)(F)C(=O)N2C` (stereo not drawn) [Compound 38, 4-((7,7-difluoro-9-isopropyl-5-methyl-6-oxo-6,7,8,9-tetrahydro-5H-pyrimido[4,5-b][1,4]diazepin-2-yl)amino)-N-(4-(2-(4-(4-((2,6-dioxopiperidin-3-yl)(methyl)amino)-2-fluorophenyl)piperazin-1-yl)ethyl)piperidin-1-yl)-3-methoxybenzamide] are more than 10000 nM, less than 30 nM, less than 30 nM and “+++ (+++: <0.3)”.
On the same counts, the results for `COc1cc(C(=O)NN2CCC(CCN3CCN(c4cc(OC)c(NC5CCC(=O)NC5=O)cc4F)CC3)CC2)ccc1Nc1ncc2c(n1)N(C(C)C)CC(F)(F)C(=O)N2C` (stereo not drawn) [Compound 39, 4-((7,7-difluoro-9-isopropyl-5-methyl-6-oxo-6,7,8,9-tetrahydro-5H-pyrimido[4,5-b][1,4]diazepin-2-yl)amino)-N-(4-(2-(4-(4-((2,6-dioxopiperidin-3-yl)amino)-2-fluoro-5-methoxyphenyl)piperazin-1-yl)ethyl)piperidin-1-yl)-3-methoxybenzamide] are more than 10000 nM, less than 30 nM, less than 30 nM and “++ (++: <0.5)”.
On to `COc1cc(C(=O)NN2CCC(CCN3CCN(c4cc(OC)c(NC5CCC(=O)NC5=O)cc4F)CC3)CC2)ccc1Nc1ncc2c(n1)N(C1CCCC1)CC(F)(F)C(=O)N2C` (stereo not drawn) [Compound 40, 4-((9-cyclopentyl-7,7-difluoro-5-methyl-6-oxo-6,7,8,9-tetrahydro-5H-pyrimido[4,5-b][1,4]diazepin-2-yl)amino)-N-(4-(2-(4-(4-((2,6-dioxopiperidin-3-yl)amino)-2-fluoro-5-methoxyphenyl)piperazin-1-yl)ethyl)piperidin-1-yl)-3-methoxybenzamide], for which the values for the IC50 with MRC-5 cell line, with NCI-H526 cell line and with NCI-H69 cell line were more than 10000 nM, less than 30 nM and less than 30 nM, respectively. Moreover, the “Activity: ratio” value on PLK1 is listed as “+++ (+++: <0.3)”.
In the case of `CCN1CC(F)(F)C(=O)N(C)c2cnc(Nc3ccc(C(=O)NN4CCC(CCN5CCN(c6cc(OC)c(NC7CCC(=O)NC7=O)cc6F)CC5)CC4)cc3OC)nc21` (stereo not drawn) [Compound 41, N(4-(2-(4-(4-((2,6-dioxopiperidin-3-yl)amino)-2-fluoro-5-methoxyphenyl)piperazin-1-yl)ethyl)piperidin-1-yl)-4-((9-ethyl-7,7-difluoro-5-methyl-6-oxo-6,7,8,9-tetrahydro-5H-pyrimido[4,5-b][1,4]diazepin-2-yl)amino)-3-methoxybenzamide], the IC50 was more than 10000 nM in the assay with MRC-5 cell line, less than 30 nM in the assay on NCI-H526 cell line and less than 30 nM in the assay with NCI-H69 cell line. For the same compound, the “Activity: ratio” value on PLK1 was “++ (++: <0.5)”.
`COc1cc(C(=O)NN2CCC(CCN3CCN(c4cc(OC)c(NC5CCC(=O)NC5=O)cc4F)CC3)CC2)c(F)cc1Nc1ncc2c(n1)N(C1CCCC1)CC(F)(F)C(=O)N2C` (stereo not drawn) [Compound 42, 4-((9-cyclopentyl-7,7-difluoro-5-methyl-6-oxo-6,7,8,9-tetrahydro-5H-pyrimido[4,5-b][1,4]diazepin-2-yl)amino)-N-(4-(2-(4-(4-((2,6-dioxopiperidin-3-yl)amino)-2-fluoro-5-methoxyphenyl)piperazin-1-yl)ethyl)piperidin-1-yl)-2-fluoro-5-methoxybenz amide]: the IC50 in the assay with MRC-5 cell line is more than 10000 nM; with NCI-H526 cell line, less than 30 nM; in the assay on NCI-H69 cell line it was less than 50 nM. For the same compound, the “Activity: ratio” value at PLK1 is “++ (++: <0.5)”.
For `COc1cc(C(=O)NN2CCC(CCN3CCN(c4cc(OC)c(NC5CCC(=O)NC5=O)cc4F)CC3)CC2)c(F)cc1Nc1ncc2c(n1)N(C(C)C)CC(F)(F)C(=O)N2C` (stereo not drawn) [Compound 43, 4-((7,7-difluoro-9-isopropyl-5-methyl-6-oxo-6,7,8,9-tetrahydro-5H-pyrimido[4,5-b][1,4]diazepin-2-yl)amino)-N-(4-(2-(4-(4-((2,6-dioxopiperidin-3-yl)amino)-2-fluoro-5-methoxyphenyl)piperazin-1-yl)ethyl)piperidin-1-yl)-2-fluoro-5-methoxybenzamide], the half-maximal inhibitory concentration (IC50) in the assay with MRC-5 cell line is more than 10000 nM; in the assay on NCI-H526 cell line, less than 30 nM; in the assay with NCI-H69 cell line it was less than 30 nM. The “Activity: ratio” value on PLK1 was “++ (++: <0.5)”.
Regarding `COc1cc(N2CCN(CCC3CCN(NC(=O)c4ccc(Nc5ncc6c(n5)N(C5CCCC5)CC(F)(F)C(=O)N6C)c(OC)c4F)CC3)CC2)c(F)cc1NC1CCC(=O)NC1=O` (stereo not drawn) [Compound 44, 4-((9-cyclopentyl-7,7-difluoro-5-methyl-6-oxo-6,7,8,9-tetrahydro-5H-pyrimido[4,5-b][1,4]diazepin-2-yl)amino)-N-(4-(2-(4-(4-((2,6-dioxopiperidin-3-yl)amino)-2-fluoro-5-methoxyphenyl)piperazin-1-yl)ethyl)piperidin-1-yl)-2-fluoro-3-methoxybenz amide], the IC50 in the assay with MRC-5 cell line is more than 10000 nM; with NCI-H526 cell line it was less than 50 nM; in the assay with NCI-H69 cell line it was less than 100 nM. Further, the “Activity: ratio” value at PLK1 was “+++ (+++: <0.3)”.
The matching figures for `COc1cc(N2CCN(CCC3CCN(NC(=O)c4cc(F)c(Nc5ncc6c(n5)N(C(C)C)CC(F)(F)C(=O)N6C)cc4OC)CC3)CC2)c(F)cc1NC1CCC(=O)NC1=O` (stereo not drawn) [Compound 45, 4-((7,7-difluoro-9-isopropyl-5-methyl-6-oxo-6,7,8,9-tetrahydro-5H-pyrimido[4,5-b][1,4]diazepin-2-yl)amino)-N-(4-(2-(4-(4-((2,6-dioxopiperidin-3-yl)amino)-2-fluoro-5-methoxyphenyl)piperazin-1-yl)ethyl)piperidin-1-yl)-5-fluoro-2-methoxybenzamide]: more than 10000 nM, less than 200 nM, less than 200 nM and “++ (++: <0.5)”.
On the same counts, the results for `COc1cc(C(=O)NN2CCC(CCN3CCN(c4cc(OC)c(NC5CCC(=O)NC5=O)cc4F)CC3)CC2)ncc1Nc1ncc2c(n1)N(C(C)C)CC(F)(F)C(=O)N2C` (stereo not drawn) [Compound 46, 5-((7,7-difluoro-9-isopropyl-5-methyl-6-oxo-8H-pyrimido[4,5-b][1,4]diazepin-2-yl)amino)-N-(4-(2-(4-(4-((2,6-dioxo-3-piperidyl)amino)-2-fluoro-5-methoxy-phenyl)piperazin-1-yl)ethyl)-1-piperidyl)-4-methoxy-pyridine-2-carboxamide] are more than 10000 nM, less than 50 nM, less than 100 nM and “++ (++: <0.5)”.
Take `COc1cc(C(=O)NN2CCC(CCN3CCN(c4cc(OC)c(NC5CCC(=O)NC5=O)cc4F)CC3)CC2)ncc1Nc1ncc2c(n1)N(C1CCCC1)CC(F)(F)C(=O)N2C` (stereo not drawn) [Compound 47, 5-((9-cyclopentyl-7,7-difluoro-5-methyl-6-oxo-6,7,8,9-tetrahydro-5H-pyrimido[4,5-b][1,4]diazepin-2-yl)amino)-N-(4-(2-(4-(4-((2,6-dioxopiperidin-3-yl)amino)-2-fluoro-5-methoxyphenyl)piperazin-1-yl)ethyl)piperidin-1-yl)-4-methoxypicolinamide]: the half-inhibitory concentration (IC50) with MRC-5 cell line is more than 10000 nM; with NCI-H526 cell line it was less than 50 nM; in the assay on NCI-H69 cell line, less than 50 nM. On PLK1, the “Activity: ratio” value is on record as “++ (++: <0.5)”.

For orientation: IC50 means the concentration at which inhibition is half-maximal.
